Results published in patent US12257238B2, “Magnesium biotinate compositions and methods of use” (Nutrition21, LLC, priority 2016, dated 2025).
Converted amounts (≈) assume the structure as drawn. Read-outs that look alike come from different tables or passages of the source.

How the values were obtained:
[1] = Absorption study in rats: serum, liver and brain biotin; settings: for Brain Biotin / Liver Biotin / Serum Biotin: 30 days, mean
[2] = in vivo; settings: male, Sprague-Dawley, rat, serum, oral
[3] = tested on: Liver cGMP; assay: Liver cGMP in rats; assay type: in vivo, male Sprague-Dawley rats; settings: 30 days, mean
[4] = cited from earlier work
[5] = Stability of magnesium D-biotinate (storage, hygroscopicity, light); assay type: physicochemical
[6] = Solubility of magnesium D-biotinate; settings: for Solubility in water: compared with biotin
[7] = 1 mg/kg body weight, listed as B, 1 mg/kg
[8] = 100 mg/kg body weight, listed as B, 100 mg/kg
[9] = 0.01 mg/kg body weight, listed as MgB, 0.01 mg/kg
[10] = 1 mg/kg body weight, listed as MgB, 1 mg/kg
[11] = 100 mg/kg body weight, listed as MgB, 100 mg/kg

SMILES: O=C(O)CCCC[C@@H]1SC[C@@H]2NC(=O)N[C@@H]21 [Biotin, D-biotin]
- Brain Biotin ([1]; 0.01 mg/kg body weight): 0.14 nmol/g
- Liver Biotin ([1]; 0.01 mg/kg body weight, listed as B, 0.01 mg/kg): 0.02 nmol/g
- Brain Biotin [1, 7]: 0.42 nmol/g
- Liver Biotin [1, 7]: 0.56 nmol/g
- Brain Biotin [1, 8]: 1.37 nmol/g
- Liver Biotin [1, 8]: 1.38 nmol/g
- concentration at 30 days ([2]; 0.01 mg/kg): 23.6 nM
- concentration at 30 days ([2]; 1 mg/kg): 137 nM
- concentration at 30 days ([2]; 100 mg/kg): 3520 nM
- Liver cGMP ([3]; 0.01 mg/kg body weight): 8.46 pmol/mg protein
- Liver cGMP ([3]; 1 mg/kg body weight): 12.01 pmol/mg protein
- Liver cGMP ([3]; 100 mg/kg body weight): 14.68 pmol/mg protein
- Solubility ([4]; Benzene): Soluble
- Solubility ([4]; Dimethyl sulfoxide (DMSO)): 4.9 g/100 mL
- Solubility ([4]; Ethanol): 80 mg/100 mL
- Solubility ([4]; Methanol): 80 mg/100 mL
- Solubility ([4]; N,N-Dimethylformamide (DMF)): 170 mg/100 mL
- Solubility ([4]; N,N-dimethylformamide, Merck Index): 1.7 mg/mL (≈ 6.96 mM)
- Solubility ([4]; Water): 22 mg/100 mL
- Solubility ([4]; other common organic solvents, Merck Index): insoluble

SMILES: [O]=[Mg] [MgO, magnesium oxide]
- Solubility ([4]; Benzene): salts insoluble
- Solubility ([4]; Dimethyl sulfoxide (DMSO)): MgO insoluble;
- Solubility ([4]; Ethanol): MgO insoluble;
- Solubility ([4]; Methanol): MgO insoluble;
- Solubility ([4]; N,N-Dimethylformamide (DMF)): MgO insoluble;
- Solubility ([4]; Water): MgO insoluble;

SMILES: O=C(O)CCCC[C@@H]1SC[C@@H]2NC(=O)N[C@@H]21 [magnesium D-biotinate]
- Liver Biotin [1, 9]: 0.03 nmol/g
- Serum Biotin [1, 9]: 23.41 nmol/L
- Brain Biotin [1, 10]: 0.66 nmol/g
- Liver Biotin [1, 10]: 0.71 nmol/g
- Serum Biotin [1, 10]: 171.13 nmol/L
- Brain Biotin [1, 11]: 1.65 nmol/g
- Liver Biotin [1, 11]: 1.62 nmol/g
- Serum Biotin [1, 11]: 5161.43 nmol/L
- Absorption ([1]; compared to biotin): higher absorption
- Storage stability ([5]; 30 days at 40% relative humidity and 25° C.): stable
- Storage stability ([5]; 30 days at 40% relative humidity and 25° C., listed as Magnesium biotinate): no signs of degradation
- Storage stability ([5]; 30 days at 75% relative humidity and 40° C.): stable
- Storage stability ([5]; 30 days at 75% relative humidity and 40° C., listed as Magnesium biotinate): no signs of degradation
- Stability on exposure to light ([5]; amorphous solid): stable upon exposure to light
- Hygroscopicity ([5]; amorphous solid, as measured by weight): not hygroscopic
- Stability on exposure to light ([5]; amorphous solid, listed as Magnesium biotinate): did not change color
- Storage stability ([5]; room temperature): stable
- Liver cGMP ([3]; 0.01 mg/kg body weight): 8.60 pmol/mg protein
- Liver cGMP ([3]; 1 mg/kg body weight): 13.04 pmol/mg protein
- Liver cGMP ([3]; 100 mg/kg body weight): 17.07 pmol/mg protein
- Solubility ([6]; Water): ~10000 µg/mL (≈ 40.9 mM)
- Solubility ([6]; water): ≥ 10000 µg/mL
- Solubility in water ([6]; water): unexpectedly soluble in water
- Solubility in water ([6]; water, listed as magnesium biotinate): significantly improved solubility
